Test results taken from PubChem BioAssay AID192 (DTP/NCI, 2004).
Where “and” joins values, the source holds several entries; their conditions need not be identical. Equal values may be shown once. Inconclusive results and toxic doses are left out. Square brackets hold non-standard residues; d marks the D form. Peptide text beside a SMILES is read from it. Abu = CC[CH](N)C(=O)O

Tested on: BDF1 mice, B16 melanoma ip, median survival T/C
Experiment: NCI In Vivo Anticancer Drug Screen. Data for tumor model B16 Melanoma (intraperitoneal) in B6D2F1 (BDF1) mice
Conditions: endpoint: median survival time, higher = longer survival
Procedure, shortened: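 Read-out: survival or tumor size, given as treated/control ratio. Controls received vehicle only; animals bore transplantable tumors.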

[1] = dose: 1.0 mg/kg/injection, schedule: Q01DX009 (ip), vehicle: saline with Tween-80
[2] = dose: 2.0 mg/kg/injection, schedule: Q01DX009 (ip), vehicle: saline with Tween-80
[3] = dose: 4.0 mg/kg/injection, schedule: Q01DX009 (ip), vehicle: saline with Tween-80

CCC(N)C(=O)NC(C(N)=O)C(C)C (stereo not drawn) (H-[Abu]-Val-NH2; configuration not given here)
T/C (dose: 50.0 mg/kg/injection, schedule: Q01DX009 (ip), vehicle: saline): 90 % of control
T/C (dose: 100.0 mg/kg/injection, schedule: Q01DX009 (ip), vehicle: saline): 100 % of control
T/C (dose: 200.0 mg/kg/injection, schedule: Q01DX009 (ip), vehicle: saline): 110 % of control
T/C (dose: 400.0 mg/kg/injection, schedule: Q01DX009 (ip), vehicle: saline): 100 % of control

O=COCCc1ccccc1
T/C (dose: 100.0 mg/kg/injection, schedule: Q01DX009 (ip), vehicle: Klucel (hydroxypropylcellulose) (HPC)): 113 % of control
T/C (dose: 200.0 mg/kg/injection, schedule: Q01DX009 (ip), vehicle: Klucel (hydroxypropylcellulose) (HPC)): 103 % of control
T/C (dose: 400.0 mg/kg/injection, schedule: Q01DX009 (ip), vehicle: Klucel (hydroxypropylcellulose) (HPC)): 96 % of control

O=C1C=CC(=O)c2c(O)c(CBr)c(CBr)c(O)c21
T/C (dose: 6.25 mg/kg/injection, schedule: Q01DX009 (ip), vehicle: Klucel (hydroxypropylcellulose) (HPC)): 102 % of control
T/C (dose: 12.5 mg/kg/injection, schedule: Q01DX009 (ip), vehicle: Klucel (hydroxypropylcellulose) (HPC)): 101 % of control
T/C (dose: 25.0 mg/kg/injection, schedule: Q01DX009 (ip), vehicle: Klucel (hydroxypropylcellulose) (HPC)): 100 % of control
T/C (dose: 50.0 mg/kg/injection, schedule: Q01DX009 (ip), vehicle: Klucel (hydroxypropylcellulose) (HPC)): 94 % of control

Cc1ccc(NC(=O)c2cccc(C(=O)Nc3ccc(C)c(C)c3)c2)cc1C
T/C (dose: 100.0 mg/kg/injection, schedule: Q04DX003 (ip), vehicle: Klucel (hydroxypropylcellulose) (HPC)): 97 % of control
T/C (dose: 200.0 mg/kg/injection, schedule: Q04DX003 (ip), vehicle: Klucel (hydroxypropylcellulose) (HPC)): 90 % of control
T/C (dose: 400.0 mg/kg/injection, schedule: Q04DX003 (ip), vehicle: Klucel (hydroxypropylcellulose) (HPC)): 93 % of control

C[C@@H]1O[C@@H](O[C@H]2CC[C@]3(C=O)[C@H]4CC[C@]5(C)[C@@H](c6ccc(=O)oc6)CC[C@]5(O)[C@@H]4CC[C@]3(O)C2)[C@H](O)[C@H](O)[C@H]1O[C@@H]1O[C@H](CO)[C@@H](O)[C@H](O)[C@H]1O
T/C (dose: 0.63 mg/kg/injection, schedule: Q01DX009 (ip), vehicle: saline): 102 % of control
T/C (dose: 1.25 mg/kg/injection, schedule: Q01DX009 (ip), vehicle: saline): 92 % of control
T/C (dose: 2.5 mg/kg/injection, schedule: Q01DX009 (ip), vehicle: saline): 90 % of control

COc1cccc2c1C(=O)c1c(O)c3c(c(O)c1C2=O)C[C@@](O)(C(=O)COC(=O)Cc1cccc2ccccc12)C[C@@H]3OC1CC(N)C(O)C(C)O1 (stereo partly drawn)
T/C (dose: 0.5 mg/kg/injection, schedule: Q01DX009 (ip), vehicle: saline with Tween-80): 169 % of control
T/C [1]: 150 % of control and 227 % of control
T/C [2]: 169 % of control and 238 % of control
T/C [3]: 192 % of control and 284 % of control

N[C@@H](Cc1ccc(N(CCCl)CCCl)cc1)C(=O)O
T/C (dose: 0.06 mg/kg/injection, schedule: Q01DX009 (ip), vehicle: saline): 97 % of control
T/C (dose: 0.12 mg/kg/injection, schedule: Q01DX009 (ip), vehicle: saline): 102 % of control
T/C (dose: 0.25 mg/kg/injection, schedule: Q01DX009 (ip), vehicle: saline): 104 % of control
T/C (dose: 0.5 mg/kg/injection, schedule: Q01DX009 (ip), vehicle: carboxymethylcellulose (CMC)): 95 % of control
T/C (dose: 0.5 mg/kg/injection, schedule: Q01DX009 (ip), vehicle: water): 123 % of control
T/C (dose: 0.75 mg/kg/injection, schedule: Q01DX009 (ip), vehicle: Klucel (hydroxypropylcellulose) (HPC)): 151 % of control
T/C (dose: 0.75 mg/kg/injection, schedule: Q01DX009 (ip), vehicle: saline): 157 % of control
T/C (dose: 1.0 mg/kg/injection, schedule: Q01DX009 (ip), vehicle: carboxymethylcellulose (CMC)): 88 % of control
T/C [1]: 180 % of control
T/C (dose: 1.0 mg/kg/injection, schedule: Q01DX009 (ip), vehicle: water): 176 % of control
T/C (dose: 1.2 mg/kg/injection, schedule: Q01DX009 (ip), vehicle: saline): 167 % of control
T/C (dose: 1.25 mg/kg/injection, schedule: Q01DX001 (ip), vehicle: water): 123 % of control
T/C (dose: 1.5 mg/kg/injection, schedule: Q01DX009 (ip), vehicle: Klucel (hydroxypropylcellulose) (HPC)): 188 % of control
T/C (dose: 1.5 mg/kg/injection, schedule: Q01DX009 (ip), vehicle: carboxymethylcellulose (CMC)): 180 % of control
T/C (dose: 1.5 mg/kg/injection, schedule: Q01DX009 (ip), vehicle: saline): 166 % of control and 197 % of control
T/C (dose: 2.0 mg/kg/injection, schedule: Q01DX009 (ip), vehicle: carboxymethylcellulose (CMC)): 95 % of control
T/C [2]: 254 % of control
T/C (dose: 2.0 mg/kg/injection, schedule: Q01DX009 (ip), vehicle: water): 188 % of control
T/C (dose: 2.5 mg/kg/injection, schedule: Q01DX001 (ip), vehicle: Klucel (hydroxypropylcellulose) (HPC)): 164 % of control
T/C (dose: 3.0 mg/kg/injection, schedule: Q01DX009 (ip), vehicle: Klucel (hydroxypropylcellulose) (HPC)): 198 % of control
T/C (dose: 3.0 mg/kg/injection, schedule: Q01DX009 (ip), vehicle: saline): 171 % of control and 262 % of control
T/C (dose: 3.3 mg/kg/injection, schedule: Q01DX009 (ip), vehicle: saline): 218 % of control
T/C (dose: 4.0 mg/kg/injection, schedule: Q01DX009 (ip), vehicle: carboxymethylcellulose (CMC)): 94 % of control
T/C [3]: 200 % of control
T/C (dose: 4.0 mg/kg/injection, schedule: Q01DX009 (ip), vehicle: water): 161 % of control
T/C (dose: 4.0 mg/kg/injection, schedule: Q04DX003 (ip), vehicle: saline): 194 % of control
T/C (dose: 5.0 mg/kg/injection, schedule: Q01DX001 (ip), vehicle: Klucel (hydroxypropylcellulose) (HPC)): 222 % of control
T/C (dose: 5.0 mg/kg/injection, schedule: Q01DX005 (ip), vehicle: saline): 156 % of control
T/C (dose: 6.0 mg/kg/injection, schedule: Q01DX009 (ip), vehicle: carboxymethylcellulose (CMC)): 106 % of control and 117 % of control
T/C (dose: 6.0 mg/kg/injection, schedule: Q01DX009 (ip), vehicle: saline): 118 % of control
T/C (dose: 6.0 mg/kg/injection, schedule: Q04DX003 (ip), vehicle: Klucel (hydroxypropylcellulose) (HPC)): 179 % of control
T/C (dose: 8.0 mg/kg/injection, schedule: Q04DX003 (ip), vehicle: saline): 231 % of control
T/C (dose: 10.0 mg/kg/injection, schedule: Q01DX001 (ip), vehicle: Klucel (hydroxypropylcellulose) (HPC)): 242 % of control
T/C (dose: 10.0 mg/kg/injection, schedule: Q01DX001 (ip), vehicle: water): 191 % of control
T/C (dose: 10.0 mg/kg/injection, schedule: Q01DX005 (ip), vehicle: saline): 194 % of control
T/C (dose: 12.0 mg/kg/injection, schedule: Q04DX003 (ip), vehicle: Klucel (hydroxypropylcellulose) (HPC)): 169 % of control
T/C (dose: 16.0 mg/kg/injection, schedule: Q04DX003 (ip), vehicle: saline): 169 % of control
